In the test the test system is P388 leukemia ip, CD2F1 mice, survival T/C. Nature of the test: NCI In Vivo Anticancer Drug Screen. Data for tumor model P388 Leukemia (intraperitoneal) in CD2F1 (CDF1) mice. Particulars: endpoint: median survival time, higher = longer survival. In a few lines: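 Mice carrying the transplanted tumor received test compound or vehicle. Survival was recorded in each group, and the value is the treated-group measurement divided by that of the vehicle-treated control group.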

[1] abbreviates: dose: 60.0 mg/kg/injection, schedule: Q01DX005 (ip), vehicle: saline with Tween-80.
The mark [2] stands for this setting: dose: 120.0 mg/kg/injection, schedule: Q01DX005 (ip), vehicle: saline with Tween-80.
[3] abbreviates: dose: 240.0 mg/kg/injection, schedule: Q01DX005 (ip), vehicle: saline with Tween-80.
Setting [4] is: dose: 50.0 mg/kg/injection, schedule: Q01DX005 (ip), vehicle: Klucel (hydroxypropylcellulose) (HPC).
[5] abbreviates: dose: 100.0 mg/kg/injection, schedule: Q01DX005 (ip), vehicle: Klucel (hydroxypropylcellulose) (HPC).
The mark [6] stands for this setting: dose: 200.0 mg/kg/injection, schedule: Q01DX005 (ip), vehicle: Klucel (hydroxypropylcellulose) (HPC).
Setting [7] is: dose: 100.0 mg/kg/injection, schedule: Q01DX009 (ip), vehicle: saline.
Setting [8] is: dose: 25.0 mg/kg/injection, schedule: Q01DX005 (ip), vehicle: saline with Tween-80.
[9] abbreviates: dose: 50.0 mg/kg/injection, schedule: Q01DX005 (ip), vehicle: saline with Tween-80.
The mark [10] stands for this setting: dose: 100.0 mg/kg/injection, schedule: Q01DX005 (ip), vehicle: saline with Tween-80.
Setting [11] is: dose: 200.0 mg/kg/injection, schedule: Q01DX005 (ip), vehicle: saline with Tween-80.
The mark [12] stands for this setting: dose: 100.0 mg/kg/injection, schedule: Q01DX009 (ip), vehicle: saline with Tween-80.
Setting [13] is: dose: 50.0 mg/kg/injection, schedule: Q01DX009 (ip), vehicle: saline with Tween-80.
The mark [14] stands for this setting: dose: 200.0 mg/kg/injection, schedule: Q01DX009 (ip), vehicle: saline with Tween-80.
The mark [15] stands for this setting: dose: 60.0 mg/kg/injection, schedule: Q01DX005 (ip), vehicle: saline.

Molecules are shown by their SMILES. “And” between values parts separate entries of the source, which are not always exact repeats. Equal entries are not always repeated. Toxic doses and inconclusive results are not listed.

For `Oc1cc2c(cc1C(c1ccc3c(c1)OCO3)N1CCCC1)OCO2` (centres undefined), the T/C is, setting by setting: (dose: 60.0 mg/kg/injection, schedule: Q01DX005 (ip), vehicle: Klucel (hydroxypropylcellulose) (HPC)) 109 % of control; (dose: 120.0 mg/kg/injection, schedule: Q01DX005 (ip), vehicle: Klucel (hydroxypropylcellulose) (HPC)) 110 % of control; (dose: 240.0 mg/kg/injection, schedule: Q01DX005 (ip), vehicle: Klucel (hydroxypropylcellulose) (HPC)) 112 % of control.

On to `O=C(CCC(=O)Nc1cc(Cl)ccc1Cl)CC(=O)c1ccc([N+](=O)[O-])cc1`, for which the T/C is 98 % of control under setting [1], 100 % of control under setting [2] and 109 % of control under setting [3].

Regarding `Cc1ccccc1C1(Br)C(=O)c2ccccc2C1=O`, the T/C was 101 % of control (dose: 100.0 mg/kg/injection, schedule: Q04DX002 (ip), vehicle: saline); 101 % of control (dose: 200.0 mg/kg/injection, schedule: Q04DX002 (ip), vehicle: saline); 102 % of control (dose: 400.0 mg/kg/injection, schedule: Q04DX002 (ip), vehicle: saline).

For `COc1cccc2c1NC(O)c1cccn1C2=O` (centres undefined), the T/C reads like this: (dose: 0.1 mg/kg/injection, schedule: Q01DX005 (ip), vehicle: water) 93 % of control; (dose: 0.2 mg/kg/injection, schedule: Q01DX005 (ip), vehicle: water) 93 % of control; (dose: 0.4 mg/kg/injection, schedule: Q01DX005 (ip), vehicle: water) 96 % of control; (dose: 0.8 mg/kg/injection, schedule: Q01DX005 (ip), vehicle: water) 93 % of control; (dose: 1.6 mg/kg/injection, schedule: Q01DX005 (ip), vehicle: water) 98 % of control; (dose: 5.0 mg/kg/injection, schedule: Q01DX005 (ip), vehicle: distilled water + Tween-80) 90 % of control. Further, the T/C is 98 % of control (dose: 10.0 mg/kg/injection, schedule: Q01DX005 (ip), vehicle: distilled water + Tween-80); 100 % of control (dose: 20.0 mg/kg/injection, schedule: Q01DX005 (ip), vehicle: distilled water + Tween-80); 100 % of control (dose: 40.0 mg/kg/injection, schedule: Q01DX005 (ip), vehicle: distilled water + Tween-80); 93 % of control (dose: 80.0 mg/kg/injection, schedule: Q01DX005 (ip), vehicle: distilled water + Tween-80).

For `COc1ccc(C(=O)c2c(OC)cccc2C(=O)O)cc1`, the T/C was 105 % of control under setting [4], 105 % of control under setting [5] and 97 % of control under setting [6].

In the case of `Cc1ccc(C)c(NC(=O)Nc2ccccc2C(N)=O)c1`, the T/C reads like this: (dose: 50.0 mg/kg/injection, schedule: Q01DX009 (ip), vehicle: Klucel (hydroxypropylcellulose) (HPC)) 91 % of control; (dose: 100.0 mg/kg/injection, schedule: Q01DX009 (ip), vehicle: Klucel (hydroxypropylcellulose) (HPC)) 113 % of control; (dose: 200.0 mg/kg/injection, schedule: Q01DX009 (ip), vehicle: Klucel (hydroxypropylcellulose) (HPC)) 104 % of control.

On to `CCCCNC(=O)C1C2C=CC(O2)C1C(=O)O` (centres undefined), for which the T/C is 100 % of control under setting [4], 93 % of control under setting [5] and 89 % of control under setting [6].

Take `COC(=O)/C=C1/Nc2ccc(Cl)cc2C(=O)NC1=O`: the T/C runs as follows: under setting [1], 95 % of control; under setting [2], 93 % of control; under setting [3], 93 % of control.

Consider `CNCCc1ccc(O)c(O)c1`, for which the T/C reads like this: under setting [7], 108 % of control and 118 % of control; (dose: 200.0 mg/kg/injection, schedule: Q01DX009 (ip), vehicle: saline) 111 % of control and 98 % of control; (dose: 400.0 mg/kg/injection, schedule: Q01DX009 (ip), vehicle: saline) 116 % of control and 90 % of control.

For the compound `CCOC(=O)C/C(C)=N\N(C)C(N)=O`, the T/C (dose: 50.0 mg/kg/injection, schedule: Q01DX009 (ip), vehicle: saline) is 91 % of control and the T/C under setting [7] was 94 % of control.

On to `Cc1ccc(C2(c3ccccc3)OC3OC=CC32)cc1` (centres undefined), for which the T/C runs as follows: under setting [8], 97 % of control; under setting [9], 101 % of control; under setting [1], 96 % of control; under setting [10], 100 % of control; under setting [3], 96 % of control.

`O=C1c2cccc3cccc(c23)C(=O)N1c1nccs1`: the T/C under setting [9] is 100 % of control, the T/C under setting [10] was 94 % of control and the T/C under setting [11] is 90 % of control.

In the case of `CC1CN1P(=S)(Oc1ccccc1)N1CC1C` (centres undefined), the T/C by setting is: under setting [12], 110 % of control; (dose: 100.0 mg/kg/injection, schedule: Q04DX003 (ip), vehicle: saline with Tween-80) 109 % of control; (dose: 200.0 mg/kg/injection, schedule: Q04DX003 (ip), vehicle: saline with Tween-80) 118 % of control; (dose: 400.0 mg/kg/injection, schedule: Q04DX003 (ip), vehicle: saline with Tween-80) 122 % of control.

Turning to `CC(F)C(C)C(N)C(=O)O` (centres undefined), the T/C under setting [13] is 86 % of control, the T/C under setting [12] is 91 % of control and the T/C under setting [14] was 99 % of control.

With `CCC(=O)n1nc(Nc2ccccc2)c(C(=O)OC)c1C`, the T/C by setting is: (dose: 6.25 mg/kg/injection, schedule: Q01DX005 (ip), vehicle: saline with Tween-80) 99 % of control; (dose: 12.5 mg/kg/injection, schedule: Q01DX005 (ip), vehicle: saline with Tween-80) 94 % of control; under setting [8], 94 % of control; under setting [11], 86 % of control.

As to `C=C1COC(O)(C2OCOC(C3CC(=O)NC(=O)C3)C2O)C1C` (centres undefined), the T/C was 107 % of control (dose: 0.03 mg/kg/injection, schedule: Q01DX009 (ip), vehicle: water); 119 % of control (dose: 2.0 micrograms/kg/injection, schedule: Q01DX009 (ip), vehicle: water); 119 % of control (dose: 4.0 micrograms/kg/injection, schedule: Q01DX009 (ip), vehicle: water); 117 % of control (dose: 7.5 micrograms/kg/injection, schedule: Q01DX009 (ip), vehicle: water); 181 % of control (dose: 32.0 micrograms/kg/injection, schedule: Q01DX009 (ip), vehicle: water).

Regarding `N[C@H]1c2ccsc2C(=O)[C@H]1O`, the T/C reads like this: under setting [15], 153 % of control; (dose: 240.0 mg/kg/injection, schedule: Q01DX005 (ip), vehicle: saline) 155 % of control.

For the compound `CN(C)CCCN=c1c2ccccc2n(C)c2[nH]c(=O)n(C)c(=O)c12`, the T/C (dose: 7.5 mg/kg/injection, schedule: Q01DX005 (ip), vehicle: saline) was 107 % of control; the T/C (dose: 15.0 mg/kg/injection, schedule: Q01DX005 (ip), vehicle: saline) was 124 % of control; the T/C under setting [15] was 123 % of control.

Take `ClC(Cl)(Cl)c1nc2nccnc2[nH]1`: the T/C was 88 % of control (dose: 6.25 mg/kg/injection, schedule: Q01DX009 (ip), vehicle: saline with Tween-80); 100 % of control (dose: 12.5 mg/kg/injection, schedule: Q01DX009 (ip), vehicle: saline with Tween-80); 107 % of control and 90 % of control (dose: 25.0 mg/kg/injection, schedule: Q01DX009 (ip), vehicle: saline with Tween-80).

Consider `CCC[n+]1ccc(/C=N\NC(N)=S)c2ccccc21`, for which the T/C under setting [13] was 110 % of control, the T/C under setting [12] was 121 % of control and the T/C under setting [14] was 112 % of control.

With `NC1=NN(S(=O)(=O)c2ccc(Br)cc2)CC1`, the T/C by setting is: under setting [4], 89 % of control; under setting [5], 94 % of control; under setting [6], 89 % of control.

The record behind these values is PubChem BioAssay AID330 (DTP/NCI, 2004).
